# According to PubChem BioAssay (NCI):
#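 Compound exposure: 48 hours, 5 concentrations, 96-well plates. TGI denotes the concentration required for complete inhibition of growth.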
# Key:
# Assay in all cases: NCI-60 cell line screen, 48 h
# COLO 205 colon = tested on: COLO 205 colon
# EKVX NSCLC = tested on: EKVX NSCLC
# HCC-2998 colon = tested on: HCC-2998 colon
# HCT-116 colon = tested on: HCT-116 colon
# IGROV1 ovarian = tested on: IGROV1 ovarian
# MDA-MB-435 = tested on: MDA-MB-435
# MDA-N = tested on: MDA-N
# OVCAR-5 ovarian = tested on: OVCAR-5 ovarian
# SF-295 CNS = tested on: SF-295 CNS
# SK-MEL-2 melanoma = tested on: SK-MEL-2 melanoma
# SNB-19 CNS = tested on: SNB-19 CNS
SMILES,TGI (COLO 205 colon),TGI (EKVX NSCLC),TGI (HCC-2998 colon),TGI (HCT-116 colon),TGI (IGROV1 ovarian),TGI (MDA-MB-435),TGI (MDA-N),TGI (OVCAR-5 ovarian),TGI (SF-295 CNS),TGI (SK-MEL-2 melanoma),TGI (SNB-19 CNS)
C1=C\SS/C=C\SS/C=C\SS/C=C\SS/1,> 100 µM,> 100 µM,> 100 µM,> 100 µM,> 100 µM,> 100 µM,> 100 µM,> 100 µM,> 100 µM,> 100 µM,> 100 µM
CCOC(=O)c1cnc(-n2[nH]c(C)c(CCO)c2=O)[nH]c1=O,> 100 µM,> 100 µM,> 100 µM,> 100 µM,> 100 µM,> 100 µM,> 100 µM,> 100 µM,> 100 µM,> 100 µM,> 100 µM
O=C1C2CCCCC2C(=O)N1n1c(Cc2ccc(Cl)cc2)n[nH]c1=O (stereo not given),> 100 µM,> 100 µM,> 100 µM,> 100 µM,> 100 µM,> 100 µM,> 100 µM,> 100 µM,> 100 µM,> 100 µM,> 100 µM
C1CC2=C(C1)[Se]C(=C1Sc3nsnc3S1)[Se]2,> 100 µM,> 100 µM,> 100 µM,> 100 µM,> 100 µM,> 100 µM,62 µM,> 100 µM,> 100 µM,> 100 µM,> 100 µM
CC(=O)NC1C(OCc2ccccc2)OC(CO)C(O)C1OCC(=O)NC(C)C(=O)NC(CCC(=O)NCCCCNc1ccc([N+](=O)[O-])c2[nH]c3ccccc3c(=O)c12)C(N)=O (stereo not given),> 100 µM,> 100 µM,> 100 µM,> 100 µM,> 100 µM,> 100 µM,> 100 µM,> 100 µM,> 100 µM,> 100 µM,> 100 µM
CCOC(=O)c1cccc(NC(=O)CCl)c1,23.5 µM,8.9 µM,7.93 µM,8.29 µM,8.11 µM,7.41 µM,14.7 µM,16.9 µM,26.1 µM,8.57 µM,> 92.8 µM
O=C(CP(c1ccccc1)c1ccccc1)c1cccc(C(=O)CP(c2ccccc2)c2ccccc2)c1,> 100 µM,> 100 µM,> 100 µM,> 100 µM,> 100 µM,> 100 µM,> 100 µM,> 100 µM,> 100 µM,> 100 µM,> 100 µM
C=CCC1(O)c2ccccc2C(=O)c2c(O)ccc(O)c21 (stereo not given),26.9 µM,57 µM,15 µM,27.3 µM,> 100 µM,6.43 µM,5.15 µM,60.4 µM,> 51.9 µM,9.98 µM,68.6 µM
Cc1ccc(C2CC(=O)CC(c3ccc(C)cc3)C23C(=O)NC(=O)NC3=O)cc1 (stereo not given),> 100 µM,> 100 µM,> 100 µM,> 100 µM,> 100 µM,> 100 µM,> 100 µM,> 100 µM,> 100 µM,> 100 µM,> 100 µM
Cc1ccc(C)n1-c1ccccc1C1SCCCS1,> 100 µM,> 100 µM,> 100 µM,> 100 µM,> 100 µM,> 100 µM,> 100 µM,> 100 µM,> 100 µM,> 100 µM,> 100 µM
